How the values were obtained:
Test in all cases: relative viability (nuclei count vs DMSO), 5 days (fraction); higher = more cells survive
Vandetanib + Crizotinib = compound: COc1cc2/c(=N/c3ccc(Br)cc3F)nc[nH]c2cc1OCC1CCN(C)CC1 [Vandetanib] + C[C@@H](Oc1cc(-c2cnn(C3CCNCC3)c2)cnc1N)c1c(Cl)ccc(F)c1Cl [Crizotinib] (partner 1 µM)
In short: (§1)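 Lung cancer cell lines, seeded in 1536-well plates, were treated the following day by pin tool with a single drug or with five library-drug doses (not always all listed) in √10 steps on top of a fixed anchor-drug dose. Cells were fixed and nuclei stained in one step after 5 days, and nuclei were counted. Relative viability is the nuclei count for treated wells divided by that for vehicle wells, reported as medians of duplicate plates.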

[1] = compound: C1=CC=C2C(=C1)N=C(S2)C(C#N)C3=NC(=NC=C3)NCCC4=CN=CC=C4 + CS(=O)(=O)N1CCN(Cc2cc3nc(-c4cccc5[nH]ncc45)nc(N4CCOCC4)c3s2)CC1 [Pictilisib] (partner 1 µM)
In short: as §1

Vandetanib + Dasatinib = compound: COc1cc2/c(=N/c3ccc(Br)cc3F)nc[nH]c2cc1OCC1CCN(C)CC1 [Vandetanib] + Cc1nc(Nc2ncc(C(=O)Nc3c(C)cccc3Cl)s2)cc(N2CCN(CCO)CC2)n1 [Dasatinib] (partner 0.075 µM)
In short: as §1

[2] = compound: C1=CC=C2C(=C1)N=C(S2)C(C#N)C3=NC(=NC=C3)NCCC4=CN=CC=C4 + C[C@@H](Oc1cc(-c2cnn(C3CCNCC3)c2)cnc1N)c1c(Cl)ccc(F)c1Cl [Crizotinib] (partner 1 µM)
In short: as §1

Cell Line | relative viability (Vandetanib + Crizotinib; first compound 0.02 µM) | relative viability (Vandetanib + Crizotinib; first compound 0.06325 µM) | relative viability (Vandetanib + Crizotinib; first compound 0.2 µM) | relative viability (Vandetanib + Crizotinib; first compound 0.6325 µM) | relative viability (Vandetanib + Crizotinib; first compound 2 µM) | relative viability ([1]; first compound 0.005 µM) | relative viability ([1]; first compound 0.01581 µM) | relative viability ([1]; first compound 0.05 µM) | relative viability ([1]; first compound 0.1581 µM) | relative viability ([1]; first compound 0.5 µM) | relative viability (Vandetanib + Dasatinib; first compound 0.02 µM) | relative viability (Vandetanib + Dasatinib; first compound 0.06325 µM) | relative viability (Vandetanib + Dasatinib; first compound 0.2 µM) | relative viability (Vandetanib + Dasatinib; first compound 0.6325 µM) | relative viability (Vandetanib + Dasatinib; first compound 2 µM) | relative viability ([2]; first compound 0.005 µM) | relative viability ([2]; first compound 0.01581 µM) | relative viability ([2]; first compound 0.05 µM) | relative viability ([2]; first compound 0.1581 µM) | relative viability ([2]; first compound 0.5 µM)
PC-3 [JPC-3] | 0.96 | 0.943 | 0.935 | 0.811 | 0.52 | 0.605 | 0.643 | 0.722 | 0.731 | 0.672 | 0.952 | 0.865 | 0.954 | 0.497 | 0.571 | 0.712 | 1.07 | 1.01 | 0.948 | 0.846
NCI-H1993 | 0.924 | 0.77 | 0.861 | 0.77 | 0.72 | 0.862 | 0.963 | 0.848 | 0.64 | 0.745 | 0.796 | 0.577 | 0.514 | 0.623 | 0.578 | 0.684 | 0.844 | 0.762 | 0.94 | 0.832
NCI-H1355 | 1.03 | 0.976 | 0.637 | 0.996 | 1.04 | 0.535 | 0.388 | 0.365 | 0.503 | 0.439 | 0.633 | 0.723 | 0.694 | 0.679 | 0.775 | 1.11 | 1.16 | 1.04 | 1.03 | 0.949
NCI-H23 | 0.64 | 0.573 | 0.514 | 0.527 | 0.451 | – | 0.464 | 0.455 | 0.508 | 0.511 | 0.882 | 0.806 | 0.821 | 0.797 | 0.728 | – | 0.602 | 0.433 | 0.544 | 0.35
CAL-12T | 0.778 | 0.846 | 0.799 | 0.707 | 0.364 | 0.607 | – | – | 0.551 | 0.375 | 0.426 | 0.407 | 0.387 | 0.29 | 0.32 | 0.48 | 0.561 | 0.743 | 0.766 | 0.37
ABC-1 | 1.13 | 1.05 | 1 | 1.34 | 0.728 | 0.84 | 0.605 | 0.758 | 0.87 | 0.725 | 0.423 | 0.547 | 0.605 | 0.614 | 0.367 | 1.05 | 1.1 | 0.941 | 1.21 | 0.925
NCI-H1755 | 0.853 | 0.843 | 0.789 | 0.85 | 0.829 | 0.392 | 0.35 | 0.379 | 0.576 | 0.384 | 0.416 | 0.425 | 0.446 | 0.42 | 0.404 | 0.809 | 0.964 | 0.844 | 1.02 | 0.831
SK-LU-1 | 1.06 | 0.667 | 0.862 | 0.909 | 0.732 | – | 0.643 | 0.6 | 0.651 | 0.552 | 0.195 | 0.151 | 0.184 | 0.18 | 0.173 | – | 0.853 | 0.95 | 1.16 | 0.907
